Test results from PubChem BioAssay AID1286 (University of Pittsburgh Molecular Library Screening Center, 2008).
Results filed as inconclusive are left out. The source made the active and inactive calls. No rule for the calls is given here.

What follows are compounds tested against Serine/threonine-protein kinase D1 (Homo sapiens) (UniProt Q15139) (assay: protein kinase D1 activity blockers – biochemical, fluorescence polarization, 140K library hits, repeat, confirmation (AID 1286)). Conditions: PKD1 kinase, at 10 µM, stronger effect = higher value.
Serine/threonine-protein kinase D1 (Homo sapiens), sequence (Q15139 whole entry, looked up): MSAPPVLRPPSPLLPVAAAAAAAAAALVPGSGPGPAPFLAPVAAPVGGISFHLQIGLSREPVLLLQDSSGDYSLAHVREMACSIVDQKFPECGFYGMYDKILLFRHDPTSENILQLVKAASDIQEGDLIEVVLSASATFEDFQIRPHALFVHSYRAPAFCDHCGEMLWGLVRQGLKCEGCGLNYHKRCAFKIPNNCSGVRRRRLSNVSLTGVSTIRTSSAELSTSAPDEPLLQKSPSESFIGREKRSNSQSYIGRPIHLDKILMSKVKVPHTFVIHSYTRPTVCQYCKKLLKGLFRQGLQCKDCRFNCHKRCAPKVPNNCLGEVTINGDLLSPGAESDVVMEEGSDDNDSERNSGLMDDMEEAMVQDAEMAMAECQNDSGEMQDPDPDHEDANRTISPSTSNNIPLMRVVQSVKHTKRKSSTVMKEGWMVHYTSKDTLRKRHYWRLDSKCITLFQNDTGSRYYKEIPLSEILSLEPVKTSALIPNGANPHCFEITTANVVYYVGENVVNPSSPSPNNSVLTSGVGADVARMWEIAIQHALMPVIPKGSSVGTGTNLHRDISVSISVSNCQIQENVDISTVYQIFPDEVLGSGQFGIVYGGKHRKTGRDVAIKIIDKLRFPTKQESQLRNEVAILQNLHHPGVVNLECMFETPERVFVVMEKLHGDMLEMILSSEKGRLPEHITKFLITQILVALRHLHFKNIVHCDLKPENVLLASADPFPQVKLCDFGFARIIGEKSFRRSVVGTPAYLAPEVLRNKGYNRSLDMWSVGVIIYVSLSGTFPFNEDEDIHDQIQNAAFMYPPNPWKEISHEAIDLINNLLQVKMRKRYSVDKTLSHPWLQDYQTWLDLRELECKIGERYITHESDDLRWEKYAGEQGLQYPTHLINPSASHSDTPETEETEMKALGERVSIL
In the case of CCOC(=O)c1[nH]c2cc(OC)c(OC)cc2c1NC(=O)CN1CCN(C)CC1, the inhibition is reported as 3.12% (inactive). In the case of COc1ccc(Nc2cc(C)nc(-n3nc(C)cc3C)n2)cc1, the inhibition is reported as 3.67% (inactive). For O=C(Nc1cccc([N+](=O)[O-])c1)C12CC3CC(C1)CC(n1cnc([N+](=O)[O-])n1)(C3)C2, the inhibition was -4.73% (inactive). In the case of Clc1ccc(Nc2ccc(-n3ccnc3)nn2)cc1Cl, the inhibition is reported as -1.8% (inactive). With Cc1c(N/N=C(\C#N)C(=O)c2ccccc2)c(=O)n(-c2ccccc2)n1C the inhibition was 12.8% (inactive). With Cc1c(C(=O)N/N=C/c2ccc(O)c(Br)c2)sc(N)c1C#N the inhibition was 44.5% (inactive). With Cc1c(C(=O)NCc2cccnc2)sc2nc(-c3ccc(F)cc3)cn12 the inhibition was -3.04% (inactive). In the case of COCC(C)n1c(C)cc(C(=O)COC(=O)c2nc3nc(C)cc(C)n3n2)c1C (stereo unspecified), the inhibition is reported as -2.8% (inactive). Cn1c(=O)[nH]c(=O)c2c1nc(NC1CCCCC1)n2CC(=O)NC1CCCCC1 was tested, and the inhibition was -11.5% (inactive). c1ccc(-c2n[nH]c3ccccc23)cc1 was tested, and the inhibition was 11.3% (inactive). In the case of O=C(Nc1ccsc1C(=O)NC1CC1)c1ccccc1, the inhibition is reported as 9.43% (inactive). Cn1c(OCc2cccnc2)nc2c1c(=O)n(Cc1ccc(Br)cc1)c(=O)n2C was tested, and the inhibition was -0.468% (inactive). Cc1cc(N=CC2=C(O)CC(C)(C)CC2=O)no1 was tested, and the inhibition was -1.85% (inactive). For Cc1ccc(C(=O)Cn2c(NCCO)nc3ccccc32)cc1, the inhibition was -5.32% (inactive). For COC(=O)c1ccccc1OCC(=O)NC1CCCCC1, the inhibition was -3.26% (inactive). O=C(Nc1ccc(Cl)cc1)OCc1cn(-c2ccc(Cl)cc2)nn1 was tested, and the inhibition was -2.52% (inactive). For Cn1c(=O)oc2cc(S(=O)(=O)N3CCN(Cc4ccc5c(c4)OCO5)CC3)ccc21, the inhibition was -1.91% (inactive). With COc1ccc(-c2cnnc(N/N=C/c3ccc(O)c(O)c3)n2)cc1 the inhibition was 3.96% (inactive). In the case of COc1cc2c(cc1OC)-c1c(OC)c(OC)c(OC)c3ccnc(c13)C2=O, the inhibition is reported as 10.4% (inactive). In the case of CCOC(=O)N1CCC(N2CCN(S(=O)(=O)CC)CC2)CC1, the inhibition is reported as -3.7% (inactive). With Cc1c(N/N=C(\C#N)C(=O)c2ccc(Cl)cc2)c(=O)n(-c2ccccc2)n1C the inhibition was 18% (inactive). With O=C(Nc1ccccc1Cl)ON=C1c2ccccc2-c2ccccc21 the inhibition was 14.4% (inactive). For O=C(c1cc(-c2ccccc2)nc2ccccc12)N1CCN(c2ccccn2)CC1, the inhibition was 0.468% (inactive). O=C1CC(N2CCN(c3ccccc3Cl)CC2)C(=O)N1c1cccc(F)c1 (stereo unspecified) was tested, and the inhibition was -6.73% (inactive). In the case of COC(=O)c1cccc2c1-c1ccccc1/C2=N/O, the inhibition is reported as 19.8% (inactive). Compound O=C1NCCCc2c1oc1ccc(O)cc21 has an inhibition of 96.2%. For Cc1ccc(NC(=O)CNc2ccc(Cl)cc2F)cc1, the inhibition was 0.85% (inactive). For CC1CCCC(C)N1C(=O)Cn1cc(/C=C2/C(=O)Nc3ccccc32)c2ccccc21 (stereo unspecified), the inhibition was 2.88% (inactive). CN1CCN(c2cccc3c2C(=O)c2ccccc2C3=O)CC1 was tested, and the inhibition was 34.4% (inactive). For CS(=O)(=O)N1CCN(c2ccc(NC(=O)c3ccc(Br)o3)cc2)CC1, the inhibition was -7.85% (inactive). With Clc1cncc(Cl)c1N/N=C/c1ccncc1 the inhibition was 77.4%. For Cn1c(=O)c(NCCO)c2c3c(cccc31)C(=O)c1ccccc1-2, the inhibition was 95.8%. COc1ccccc1C(=O)NN1C(=O)C2C3C=CC(O3)C2C1=O (stereo unspecified) was tested, and the inhibition was -0.477% (inactive). In the case of CC(=O)Nc1ccc2c(c1)c1ccccc1n2C(C)=O, the inhibition is reported as 14.5% (inactive). In the case of O=C1CCCc2c1cc(C(=O)NCc1ccco1)c(=O)n2-c1ccccc1, the inhibition is reported as -5.46% (inactive). In the case of Nc1nc2ccc([N+](=O)[O-])c(N)c2s1, the inhibition is reported as 69.9%. O=C(Nc1ccc(CN2CCOCC2)cc1)c1ccc(-c2cccc(Cl)c2)o1 showed an inhibition of 52.6%. With C=CCn1c(SC(C)C(=O)NCc2ccc3c(c2)OCO3)nnc1C1CCCCC1 (stereo unspecified) the inhibition was -1.58% (inactive). CC(=O)Oc1cc(OC(C)=O)c2c(C)cc(=O)oc2c1 showed an inhibition of 68.1%. For Cc1[nH]nc2c1-c1nc3ccccc3nc1C(C)(C)C2, the inhibition was 40% (inactive). With O=C(O)C1CCN(c2ncccn2)CC1 the inhibition was -5.12% (inactive). COc1ccc2nc3sc(C(=O)NCCCN4CCc5ccccc5C4)cc3cc2c1 was tested, and the inhibition was 7.3% (inactive). CC(C)CCN1CN(S(=O)(=O)c2cccs2)c2nc3ccccc3nc21 was tested, and the inhibition was -0.214% (inactive). In the case of O=C(Nc1ccccc1)ON=C1c2ccccc2-c2ccccc21, the inhibition is reported as 17.2% (inactive). In the case of CN1CCN(c2ccccc2NC(=O)c2ccc(-c3cccc([N+](=O)[O-])c3)o2)CC1, the inhibition is reported as 7.36% (inactive). For O=C(NCCOC(=O)c1ccc(C(=O)OCCNC(=O)c2cccnc2)s1)c1cccnc1, the inhibition was -5.26% (inactive). With CCn1c(CSc2ncccn2)nnc1SCC(=O)N1CCc2ccccc21 the inhibition was -1.28% (inactive). In the case of CC(OC(=O)c1ccc(NS(=O)(=O)c2cccs2)cc1)C(=O)N(C)C1CCCCC1 (stereo unspecified), the inhibition is reported as -4.35% (inactive). Nc1nc2ccccc2n1/N=C/c1ccc([N+](=O)[O-])s1 was tested, and the inhibition was 34.7% (inactive). Cc1occc1C(=O)NC(C)CCc1ccccc1 (stereo unspecified) was tested, and the inhibition was -0.529% (inactive). Cc1cc(NCCCN)nc(-c2ccccc2O)n1 gave an inhibition of 59.5%. With COc1ccc(C2C(C(=O)c3cccs3)=C(O)C(=O)N2c2nncs2)cc1 (stereo unspecified) the inhibition was 35.1% (inactive). In the case of CCOC(=O)N1CCN(c2cc(NCCC(=O)O)c3c4c(onc24)-c2ccccc2C3=O)CC1, the inhibition is reported as 3.06% (inactive). CN(C)CCOc1ccc2c(c1)Sc1ccccc1CC2=O was tested, and the inhibition was 8.37% (inactive). Work on CCOc1cccc(C2C(C(=O)c3ccc(C)o3)=C(O)C(=O)N2c2nccs2)c1 (stereo unspecified) yielded an inhibition of 73.4%. Work on CCC(=O)Nc1c2c(nn1-c1ccccc1C)CSC2 yielded an inhibition of 58.1%. For O=C1CC(N2CCN(c3ccccc3Cl)CC2)C(=O)N1c1ccc(F)cc1 (stereo unspecified), the inhibition was -3.22% (inactive). In the case of O=C(CN1CCCC1)Nc1c2c(nc3ccccc13)N(Cc1ccccc1)CC2, the inhibition is reported as -4.44% (inactive). For Cc1ccc(NC(=O)C2CCCN(S(=O)(=O)c3c(C)noc3C)C2)c(C)c1 (stereo unspecified), the inhibition was -2.05% (inactive). In the case of CCCNC(=O)CN(c1ccc(F)cc1)S(=O)(=O)c1ccc2c(c1)OCCO2, the inhibition is reported as -8.66% (inactive). Nc1nnc(SCCCC(=O)c2ccc(F)cc2)s1 was tested, and the inhibition was 26.1% (inactive). COc1ccc(S(=O)(=O)N2CCC(n3cnc4cc(C(F)(F)F)ccc43)CC2)cc1 was tested, and the inhibition was 20.8% (inactive). In the case of COc1cc(C2=NOC(C(=O)NCc3ccco3)C2)cc(OC)c1OC (stereo unspecified), the inhibition is reported as -3.78% (inactive). COc1ccccc1/C=C1\SC(=S)N(CCC(=O)NC2=NCCS2)C1=O was tested, and the inhibition was -0.701% (inactive). Compound CS(=O)(=O)N1CCN(c2ccccc2NC(=O)c2ccc(Br)o2)CC1 has an inhibition of 96.2%. CCOC(=O)N1CCC(NS(=O)(=O)c2cc(Br)cc3c2N(C(=O)CC)CC3)CC1 was tested, and the inhibition was -5.57% (inactive). Cc1nn(C)c(C)c1N1C(=O)c2cccc3c(N)ccc(c23)C1=O was tested, and the inhibition was 46.3% (inactive). NC(=O)c1cn(C2OC(CO)C(O)C2O)c2ncnc(N)c12 (stereo unspecified) gave an inhibition of 90.3%. For CCOC(=O)c1cccc(NC(=O)CCS(=O)(=O)c2cccc3nsnc23)c1, the inhibition was 28.8% (inactive). With CCN(CC)c1ccc(NC(=O)COc2ccccc2C#N)cc1S(=O)(=O)Nc1ccc(OC)cc1 the inhibition was -2.22% (inactive). Cc1cc2nc3c(=O)n(C4CCCCC4)c(=O)[nH]c3nc2cc1N was tested, and the inhibition was 21.6% (inactive). In the case of CCCCn1c(=O)[nH]c2nc3cc(N)ccc3nc2c1=O, the inhibition is reported as 31.1% (inactive). NC(N)=NC(=O)c1nc(Cl)c(N)nc1N was tested, and the inhibition was 58.6%. For O=C1c2ccccc2-c2onc3ccc(NCc4ccco4)c1c23, the inhibition was 32.1% (inactive). For CN(C)c1ccc(/C=C2\SC(=S)N(Nc3ncc(C(F)(F)F)cc3Cl)C2=O)cc1, the inhibition was 4.05% (inactive). For Cc1cc(Nc2cccc(F)c2)nc(NCc2ccccc2)n1, the inhibition was 1.99% (inactive). With Nc1nc2ccccc2n1/N=C/c1cccnc1 the inhibition was 36.4% (inactive). With CCC1=NNc2cccc3c(OC)ccc1c23 the inhibition was 89.7%. With NC(=NCCc1c[nH]c2ccccc12)NS(=O)(=O)c1cc(F)ccc1F the inhibition was 2.31% (inactive). O=C1Nc2ccccc2/C1=C/c1cnc[nH]1 was tested, and the inhibition was 28.3% (inactive). In the case of Cc1ccc(C(=O)NNC2=Nc3cccc4cccc2c34)cc1, the inhibition is reported as 6.45% (inactive).
